From patent US9512107B2, “Therapeutically active compositions and their methods of use” (Agios Pharmaceuticals, Inc., priority 2012, dated 2016) come the findings set out here.

Where a chain is given by its changes, count along the chain named.

The target in experiment [1] is T1, IDH2 R172K (Homo sapiens, UniProt P48735, R172K).
T1 sequence (P48735 40-452 R172K): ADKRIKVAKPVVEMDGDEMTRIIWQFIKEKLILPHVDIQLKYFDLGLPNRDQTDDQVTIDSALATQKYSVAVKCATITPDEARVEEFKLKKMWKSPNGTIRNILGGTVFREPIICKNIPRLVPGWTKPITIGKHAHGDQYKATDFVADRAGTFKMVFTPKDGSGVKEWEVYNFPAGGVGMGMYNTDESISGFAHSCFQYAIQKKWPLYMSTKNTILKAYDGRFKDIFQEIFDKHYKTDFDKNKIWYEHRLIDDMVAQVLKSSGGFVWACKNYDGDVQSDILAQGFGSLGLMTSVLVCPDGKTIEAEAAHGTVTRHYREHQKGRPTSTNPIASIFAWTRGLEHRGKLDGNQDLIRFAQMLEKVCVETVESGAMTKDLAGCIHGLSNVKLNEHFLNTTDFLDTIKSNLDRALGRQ
Nature of the experiment: IDH2 R172K enzymatic assay (NADPH cofactor depletion, diaphorase/resazurin readout). It counts as biochemical. As to conditions: read-out: Enz R172K. The method in brief:
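Residual NADPH is read out as resorufin fluorescence after quenching with 36 μg/ml diaphorase and 60 μM resazurin in stop mix. The stop follows a 1 h room-temperature reaction started by a substrate mix of NADPH (50 μM) and α-KG (6.3 mM), with compound preincubated with enzyme for 1 h beforehand.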

Experiment [2] has as its target T2, IDH2 R140Q (Homo sapiens, UniProt P48735, R140Q).
T2 sequence (P48735 40-452 R140Q): T1 sequence (P48735 40-452 R172K) with R101Q, K133R
Description: IDH2 R140Q enzymatic assay (cofactor depletion, similar format). It counts as biochemical. As to conditions: read-out: Enz R140Q.

Experiment [3] relates to U87MG pLVX-IDH2 R140Q-neo cells. Nature of the experiment: U87MG pLVX-IDH2 R140Q-neo cell based assay, 2-HG in media by LC-MS at 48 hours. Particulars: Homo sapiens, U-87 MG. The method in brief:
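2-HG secreted into the medium was measured by LC-MS after 48 h of compound treatment (0.2% DMSO final) of U87MG pLVX-IDH2 R140Q-neo cells in DMEM/10% FBS. The same wells were assayed at 72 h by CellTiter-Glo luminescence for effects on growth.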

For the compound `CCOC(=O)Nc1nc(Nc2ccccc2)nc(-c2ccccc2)n1` [Compound 181, ethyl 4-phenyl-6-(phenylamino)-1,3,5-triazin-2-ylcarbamate], the IC50 is 100 to 1000 nM in experiment [1], < 100 nM in experiment [2] and < 100 nM in experiment [3].

With `CC(C)(C)C(=O)Nc1nc(Nc2ccccc2)nc(-c2ccccc2)n1` [Compound 183, N-(4-phenyl-6-(phenylamino)-1,3,5-triazin-2-yl)pivalamide], the figures for the IC50 in experiment [1], in experiment [2] and in experiment [3] were 100 to 1000 nM, < 100 nM and < 100 nM, respectively.

In the case of `CC(C)Nc1nc(Nc2ccncc2)nc(-c2cccc(F)c2)n1` [Compound 184, 6-(3-fluorophenyl)-N^2-isopropyl-N^4-(pyridin-4-yl)-1,3,5-triazine-2,4-diamine], the IC50 in experiment [1] is 1000 to 10000 nM; in experiment [2], < 100 nM; in experiment [3], 100 to 1000 nM.

As to `CC(C)Nc1nc(Nc2ccncc2)nc(-c2cccc(Cl)c2)n1` [Compound 185, 6-(3-chlorophenyl)-N^2-isopropyl-N^4-(pyridin-4-yl)-1,3,5-triazine-2,4-diamine], the IC50 was 100 to 1000 nM in experiment [1], < 100 nM in experiment [2] and 100 to 1000 nM in experiment [3].

For the compound `CCC(C)Nc1nc(Nc2ccncc2)nc(-c2ccccc2)n1` (stereo not drawn) [Compound 186, N^2-sec-butyl-6-phenyl-N^4-(pyridin-4-yl)-1,3,5-triazine-2,4-diamine], the results for the IC50 in experiment [1], in experiment [2] and in experiment [3] were 100 to 1000 nM, < 100 nM and < 100 nM, respectively.

For the compound `c1ccc(-c2nc(Nc3ccncc3)nc(NC3CCCC3)n2)cc1` [Compound 187], the IC50 in experiment [1] was 100 to 1000 nM; in experiment [2], < 100 nM; in experiment [3] it was < 100 nM.

As to `c1ccc(-c2nc(Nc3ccncc3)nc(NC3CCC3)n2)cc1` [Compound 188, N^2-cyclobutyl-6-phenyl-N^4-(pyridin-4-yl)-1,3,5-triazine-2,4-diamine], the IC50 in experiment [1] was 100 to 1000 nM; in experiment [2], < 100 nM; in experiment [3], < 100 nM.

For `CC(C)(C)Nc1nc(Nc2ccncc2)nc(-c2ccccc2)n1` [Compound 189, N^2-tert-butyl-6-phenyl-N^4-(pyridin-4-yl)-1,3,5-triazine-2,4-diamine], the IC50 in experiment [1] is 1000 to 10000 nM; in experiment [2], < 100 nM; in experiment [3], 100 to 1000 nM.

As for `CC(C)CNc1nc(Nc2ccncc2)nc(-c2ccccc2)n1` [Compound 190, N^2-isobutyl-6-phenyl-N^4-(pyridin-4-yl)-1,3,5-triazine-2,4-diamine], the IC50 in experiment [1] was 100 to 1000 nM; in experiment [2], < 100 nM; in experiment [3] it was < 100 nM.

`CC(C)(C)CNc1nc(Nc2ccncc2)nc(-c2ccccc2)n1` [Compound 191, N^2-neopentyl-6-phenyl-N^4-(pyridin-4-yl)-1,3,5-triazine-2,4-diamine]: the IC50 was 100 to 1000 nM in experiment [1], < 100 nM in experiment [2] and < 100 nM in experiment [3].

With `CC(C)Nc1nc(Nc2cncc(F)c2)nc(-c2ccccc2)n1` [Compound 193, N^2-(5-fluoropyridin-3-yl)-N^4-isopropyl-6-phenyl-1,3,5-triazine-2,4-diamine], the IC50 is 100 to 1000 nM in experiment [1], < 100 nM in experiment [2] and < 100 nM in experiment [3].

On to `CC(C)Nc1nc(Nc2cncc(Cl)c2)nc(-c2ccccc2)n1` [Compound 194, N^2-(5-chloropyridin-3-yl)-N^4-isopropyl-6-phenyl-1,3,5-triazine-2,4-diamine], for which the IC50 in experiment [1], in experiment [2] and in experiment [3] was < 100 nM throughout.

Regarding `COCc1cccc(Nc2nc(NC(C)C)nc(-c3ccccc3)n2)c1` [Compound 195, N^2-isopropyl-N^4-(3-(methoxymethyl)phenyl)-6-phenyl-1,3,5-triazine-2,4-diamine], the values for the IC50 in experiment [1], in experiment [2] and in experiment [3] were 100 to 1000 nM, < 100 nM and < 100 nM, respectively.

As to `CC(C)Nc1nc(Nc2ccc(F)nc2)nc(-c2ccccc2)n1` [Compound 196, N^2-(6-fluoropyridin-3-yl)-N^4-isopropyl-6-phenyl-1,3,5-triazine-2,4-diamine], the IC50 in experiment [1] is 100 to 1000 nM; in experiment [2], < 100 nM; in experiment [3], < 100 nM.

For `CC(C)Nc1nc(Nc2ccnc(C#N)c2)nc(-c2ccccc2)n1` [Compound 197, 4-(4-(isopropylamino)-6-phenyl-1,3,5-triazin-2-ylamino)picolinonitrile], the IC50 was 100 to 1000 nM in experiment [1], < 100 nM in experiment [2] and < 100 nM in experiment [3].

In the case of `CC(C)Nc1nc(Nc2cccc(CC#N)c2)nc(-c2ccccc2)n1` [Compound 198, 2-(3-(4-(isopropylamino)-6-phenyl-1,3,5-triazin-2-ylamino)phenyl)acetonitrile], the IC50 is 100 to 1000 nM in experiment [1], < 100 nM in experiment [2] and < 100 nM in experiment [3].

In the case of `CC(C)Nc1nc(Nc2ccnc(Cl)c2)nc(-c2ccccc2)n1` [Compound 199, N^2-(2-chloropyridin-4-yl)-N^4-isopropyl-6-phenyl-1,3,5-triazine-2,4-diamine], the IC50 in experiment [1], in experiment [2] and in experiment [3] was < 100 nM in each case.

Turning to `CCOc1cc(Nc2nc(NC(C)C)nc(-c3ccccc3)n2)ccn1` [Compound 200, N^2-(2-ethoxypyridin-4-yl)-N^4-isopropyl-6-phenyl-1,3,5-triazine-2,4-diamine], the IC50 in experiment [1] is 100 to 1000 nM; in experiment [2], < 100 nM; in experiment [3], < 100 nM.

For the compound `CC(C)Nc1nc(Nc2cccc(C(C)(C)O)c2)nc(-c2ccccc2)n1` [Compound 201, 2-(3-(4-(isopropylamino)-6-phenyl-1,3,5-triazin-2-ylamino)phenyl)propan-2-ol], the IC50 in experiment [1] was 1000 to 10000 nM; in experiment [2], < 100 nM; in experiment [3], 100 to 1000 nM.

Regarding `CC(C)Nc1nc(Nc2ccnc(C(F)(F)F)c2)nc(-c2ccccc2)n1` [Compound 202, N^2-isopropyl-6-phenyl-N^4-(2-(trifluoromethyl)pyridin-4-yl)-1,3,5-triazine-2,4-diamine], the IC50 in experiment [1], in experiment [2] and in experiment [3] was < 100 nM throughout.

Consider `CC(C)(O)CNc1nc(Nc2ccccc2)nc(-c2ccccc2)n1` [Compound 203, 2-methyl-1-(4-phenyl-6-phenylamino-[1,3,5]triazin-2-yl-amino)-propan-2-ol], for which the values for the IC50 in experiment [1], in experiment [2] and in experiment [3] were 1000 to 10000 nM, < 100 nM and 100 to 1000 nM, respectively.

With `CCNS(=O)(=O)c1cccc(Nc2nc(NC(C)C)nc(-c3ccccc3)n2)c1` [Compound 204, N-ethyl-3-(4-(isopropylamino)-6-phenyl-1,3,5-triazin-2-ylamino)benzenesulfonamide], the IC50 in experiment [1] is 1000 to 10000 nM; in experiment [2] it was < 100 nM; in experiment [3], 100 to 1000 nM.

In the case of `CCS(=O)(=O)c1cccc(Nc2nc(NC(C)C)nc(-c3ccccc3)n2)c1` [Compound 205, N^2-(3-(ethylsulfonyl)phenyl)-N^4-isopropyl-6-phenyl-1,3,5-triazine-2,4-diamine], the IC50 was 100 to 1000 nM in experiment [1], < 100 nM in experiment [2] and < 100 nM in experiment [3].

Consider `CC(C)Nc1nc(Nc2cccc(S(=O)(=O)C(C)C)c2)nc(-c2ccccc2)n1` [Compound 206, N^2-isopropyl-N^4-(3-(isopropylsulfonyl)phenyl)-6-phenyl-1,3,5-triazine-2,4-diamine], for which the values for the IC50 in experiment [1], in experiment [2] and in experiment [3] were 100 to 1000 nM, < 100 nM and 100 to 1000 nM, respectively.
